# Measurements from PMC4372144 (Nature communications, 2015).
# Test system: Type II collagenase
# Experiment: Peptide cleavage kinetics, modified fluorescamine assay, Type II collagenase
# Format: biochemical
# Settings: 1 U ml^−1 Type II collagenase, pH 7.4, 37°C, duration of the assay 9 hours, fluorescamine read-out
substance,measurement,value
GCEE-NGGSGGSN-GGGH-Methacrylate [Non-degradable peptide],protease-mediated cleavage of peptide,not detectable
